Several values for one entry are separate records, joined by “and”; a condition that tells them apart may be missing. Identical values can stand only once. Toxic doses and inconclusive results are not listed. No stated cut-off is given here; in the data, active means T/C of 150% or more; inactive means T/C below 125%.
System: L1210 leukemia ip in BDF1 mice, survival T/C
Test: NCI In Vivo Anticancer Drug Screen. Data for tumor model L1210 Leukemia (intraperitoneal) in B6D2F1 (BDF1) mice
Settings: endpoint: mean survival time, higher = longer survival
Outline: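 In this screen, tumor-bearing mice given compound are compared to those given vehicle, and their survival values are reported as a treated-to-control quotient.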

[1] = dose: 100.0 mg/kg/injection, schedule: Q01DX009 (ip), vehicle: Klucel (hydroxypropylcellulose) (HPC)
[2] = dose: 200.0 mg/kg/injection, schedule: Q01DX009 (ip), vehicle: Klucel (hydroxypropylcellulose) (HPC)
[3] = dose: 400.0 mg/kg/injection, schedule: Q01DX009 (ip), vehicle: Klucel (hydroxypropylcellulose) (HPC)
[4] = dose: 100.0 mg/kg/injection, schedule: Q04DX003 (ip), vehicle: saline
[5] = dose: 100.0 mg/kg/injection, schedule: Q04DX003 (ip), vehicle: saline with Tween-80
[6] = dose: 200.0 mg/kg/injection, schedule: Q04DX003 (ip), vehicle: saline with Tween-80
[7] = dose: 100.0 mg/kg/injection, schedule: Q04DX002 (ip), vehicle: Klucel (hydroxypropylcellulose) (HPC)
[8] = dose: 200.0 mg/kg/injection, schedule: Q04DX002 (ip), vehicle: Klucel (hydroxypropylcellulose) (HPC)
[9] = dose: 100.0 mg/kg/injection, schedule: Q01DX001 (ip), vehicle: saline
[10] = dose: 200.0 mg/kg/injection, schedule: Q01DX001 (ip), vehicle: saline
[11] = dose: 400.0 mg/kg/injection, schedule: Q01DX001 (ip), vehicle: saline
[12] = dose: 100.0 mg/kg/injection, schedule: Q01DX001 (ip), vehicle: carboxymethylcellulose (CMC)
[13] = dose: 100.0 mg/kg/injection, schedule: Q01DX001 (ip), vehicle: Klucel (hydroxypropylcellulose) (HPC)
[14] = dose: 100.0 mg/kg/injection, schedule: Q04DX003 (ip), vehicle: Klucel (hydroxypropylcellulose) (HPC)
[15] = dose: 200.0 mg/kg/injection, schedule: Q01DX001 (ip), vehicle: Klucel (hydroxypropylcellulose) (HPC)

Measured: T/C

C/C(C(=O)O)=C(/Cl)c1c(C)cc(C)c(Br)c1C
inactive: dose: 100.0 mg/kg/injection, schedule: Q01DX001 (ip), vehicle: gum acacia 89 % of control | dose: 100.0 mg/kg/injection, schedule: Q01DX009 (ip), vehicle: gum acacia 108 % of control | dose: 200.0 mg/kg/injection, schedule: Q01DX001 (ip), vehicle: gum acacia 93 % of control | dose: 200.0 mg/kg/injection, schedule: Q01DX009 (ip), vehicle: gum acacia 105 % of control | dose: 400.0 mg/kg/injection, schedule: Q01DX001 (ip), vehicle: gum acacia 91 % of control

CCC(/C=C\C(C)C1CCC2C3C=CC45CC4CCC5(C)C3CCC12C)C(C)C (stereo not given)
inactive: dose: 100.0 mg/kg/injection, schedule: Q01DX001 (ip), vehicle: saline with Tween-80 96 % of control | dose: 200.0 mg/kg/injection, schedule: Q01DX001 (ip), vehicle: saline with Tween-80 89 % of control | dose: 400.0 mg/kg/injection, schedule: Q01DX001 (ip), vehicle: saline with Tween-80 86 % of control

Cc1ccc(N=Nc2ccc(C)cc2NC(=O)c2ccc(Cl)cc2Cl)cc1
inactive: [1] 88 % of control | [2] 97 % of control | [3] 89 % of control

Nc1nc2nc(I)[nH]c2c(=O)[nH]1
inactive: dose: 5.0 mg/kg/injection, schedule: Q01DX001 (ip), vehicle: saline 98 % of control | dose: 10.0 mg/kg/injection, schedule: Q01DX001 (ip), vehicle: saline 102 % of control | dose: 20.0 mg/kg/injection, schedule: Q01DX001 (ip), vehicle: saline 98 % of control | dose: 40.0 mg/kg/injection, schedule: Q01DX001 (ip), vehicle: saline 103 % of control

O=C(O)c1c(Br)c(Br)c(Br)c(Br)c1-c1c2ccc(=O)c(O)c-2oc2c(O)c(O)ccc12
inactive: dose: 12.5 mg/kg/injection, schedule: Q04DX003 (ip), vehicle: saline 108 % of control | dose: 25.0 mg/kg/injection, schedule: Q04DX003 (ip), vehicle: saline 103 % of control | dose: 50.0 mg/kg/injection, schedule: Q04DX003 (ip), vehicle: saline 105 % of control | [4] 102 % of control

CC(C)(CO)N=Cc1ccccc1O.CC(C)(CO)N=Cc1ccccc1O.[Cu].[Cu]
inactive: dose: 75.0 mg/kg/injection, schedule: Q01DX001 (ip), vehicle: other 98 % of control | dose: 150.0 mg/kg/injection, schedule: Q01DX001 (ip), vehicle: other 96 % of control | dose: 300.0 mg/kg/injection, schedule: Q01DX001 (ip), vehicle: other 98 % of control

Cn1c(C(C)(C)O)cc2ccccc21
inactive: [5] 102 % of control | [6] 107 % of control | dose: 400.0 mg/kg/injection, schedule: Q04DX003 (ip), vehicle: saline with Tween-80 100 % of control

Cc1cnc(/C=N/NC(N)=S)cn1
inactive: dose: 100.0 mg/kg/injection, schedule: Q04DX002 (ip), vehicle: saline 99 % of control | dose: 200.0 mg/kg/injection, schedule: Q04DX002 (ip), vehicle: saline 96 % of control | dose: 400.0 mg/kg/injection, schedule: Q04DX002 (ip), vehicle: saline 108 % of control

Oc1c(Cl)cc(C(c2cc(Cl)c(O)c(Cl)c2)C(c2cc(Cl)c(O)c(Cl)c2)c2cc(Cl)c(O)c(Cl)c2)cc1Cl
inactive: [4] 101 % of control | dose: 200.0 mg/kg/injection, schedule: Q04DX003 (ip), vehicle: saline 96 % of control | dose: 400.0 mg/kg/injection, schedule: Q04DX003 (ip), vehicle: saline 103 % of control

NC(=S)N/N=C/c1cccnc1
inactive: dose: 25.0 mg/kg/injection, schedule: Q01DX009 (ip), vehicle: Klucel (hydroxypropylcellulose) (HPC) 92 % of control | dose: 50.0 mg/kg/injection, schedule: Q01DX009 (ip), vehicle: Klucel (hydroxypropylcellulose) (HPC) 87 % of control | dose: 50.0 mg/kg/injection, schedule: Q04DX002 (ip), vehicle: Klucel (hydroxypropylcellulose) (HPC) 98 % of control | [1] 89 % of control | [7] 95 % of control and 107 % of control | [8] 95 % of control

Oc1ccc(Cl)cc1/C=N/Nc1c2ccccc2nc2ccccc12
inactive: [9] 89 % of control | [10] 103 % of control | [11] 105 % of control

c1ccc2c(c1)C1CC(N3CCCCC3)C2c2ccccc21 (stereo not given)
inactive: dose: 100.0 mg/kg/injection, schedule: Q01DX009 (ip), vehicle: saline 102 % of control | dose: 100.0 mg/kg/injection, schedule: Q04DX003 (ip), vehicle: alcohol 95 % of control | dose: 200.0 mg/kg/injection, schedule: Q04DX003 (ip), vehicle: alcohol 95 % of control | dose: 400.0 mg/kg/injection, schedule: Q01DX009 (ip), vehicle: saline 100 % of control | dose: 400.0 mg/kg/injection, schedule: Q04DX003 (ip), vehicle: alcohol 93 % of control

CCNC(=O)Oc1ccc(S(=O)(=O)F)cc1Cl
inactive: dose: 25.0 mg/kg/injection, schedule: Q01DX001 (ip), vehicle: carboxymethylcellulose (CMC) 91 % of control | dose: 50.0 mg/kg/injection, schedule: Q01DX001 (ip), vehicle: carboxymethylcellulose (CMC) 107 % of control | [12] 98 % of control and 100 % of control

Cc1cc(C)nc(NC(=O)Nc2cc(Cl)ccc2C)c1
inactive: [13] 90 % of control | [1] 92 % of control | [7] 100 % of control | [14] 93 % of control | [15] 100 % of control | [2] 94 % of control and 91 % of control | [8] 96 % of control | dose: 200.0 mg/kg/injection, schedule: Q04DX003 (ip), vehicle: Klucel (hydroxypropylcellulose) (HPC) 92 % of control | dose: 400.0 mg/kg/injection, schedule: Q01DX001 (ip), vehicle: Klucel (hydroxypropylcellulose) (HPC) 95 % of control | [3] 94 % of control and 96 % of control | dose: 400.0 mg/kg/injection, schedule: Q04DX002 (ip), vehicle: Klucel (hydroxypropylcellulose) (HPC) 100 % of control | dose: 400.0 mg/kg/injection, schedule: Q04DX003 (ip), vehicle: Klucel (hydroxypropylcellulose) (HPC) 109 % of control

O=C(Nc1ccc2cc(S(=O)(=O)O)ccc2c1)c1ccc(N=Nc2c(S(=O)(=O)O)cc3cc(S(=O)(=O)O)cc(NC(=O)c4ccccc4)c3c2O)cc1
inactive: dose: 25.0 mg/kg/injection, schedule: Q01DX001 (ip), vehicle: Klucel (hydroxypropylcellulose) (HPC) 93 % of control | dose: 25.0 mg/kg/injection, schedule: Q01DX009 (ip), vehicle: other 108 % of control | dose: 25.0 mg/kg/injection, schedule: Q04DX003 (ip), vehicle: Klucel (hydroxypropylcellulose) (HPC) 95 % of control | dose: 50.0 mg/kg/injection, schedule: Q01DX001 (ip), vehicle: Klucel (hydroxypropylcellulose) (HPC) 88 % of control | dose: 50.0 mg/kg/injection, schedule: Q01DX009 (ip), vehicle: other 102 % of control | dose: 50.0 mg/kg/injection, schedule: Q04DX003 (ip), vehicle: Klucel (hydroxypropylcellulose) (HPC) 98 % of control | [13] 92 % of control | dose: 100.0 mg/kg/injection, schedule: Q01DX009 (ip), vehicle: other 97 % of control | [14] 101 % of control | [5] 104 % of control | dose: 150.0 mg/kg/injection, schedule: Q01DX009 (ip), vehicle: other 89 % of control | [6] 91 % of control

CCCCN1CCN(CCCC)C1=O
inactive: [7] 90 % of control | [8] 90 % of control

O=C1NC(=O)N(c2ccccc2)C(=O)/C1=C/c1ccccc1
inactive: [13] 90 % of control | [15] 97 % of control

O=C1NC(=O)C2(CCCC2)N1
inactive: [9] 102 % of control | [10] 108 % of control | [11] 102 % of control

CS(=O)(=O)n1c(C(O)c2ccccc2)nc2ccccc21 (stereo not given)
inactive: [12] 100 % of control | dose: 200.0 mg/kg/injection, schedule: Q01DX001 (ip), vehicle: carboxymethylcellulose (CMC) 94 % of control | dose: 400.0 mg/kg/injection, schedule: Q01DX001 (ip), vehicle: carboxymethylcellulose (CMC) 89 % of control

Nc1ccccc1Nc1ccc(-c2ccc(Nc3ccccc3N)cc2)cc1
inactive: [9] 94 % of control | [10] 100 % of control | [11] 92 % of control

Source: PubChem BioAssay AID248 (DTP/NCI, 2004)
